Tests used:
Assay in all cases: area under dose-response curve of surviving fraction (unscaled, Aref=0) (surviving fraction x log10(nM)); higher = more resistant
Conditions in all cases: exposure time: 5 days; dose range 0.5-1000 nM
[1] = compound: COc1cc2ncnc(Nc3ccc(F)c(Cl)c3)c2cc1NC(=O)/C=C/CN1CCCCC1
Procedure, shortened: (§1)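 Tumour cell lines in 384-well plates were exposed to eight inhibitor concentrations, from 0.5 to 1000 nM, for five days, and viability was read by CellTiter-Glo luminescence in three screens per line. Signals were normalised to DMSO-only wells, and 3-parameter logistic regression in the drc R package fitted dose-response survival curves to the surviving fractions. Area under the curve is given as the unscaled activity area. That area is taken over log10 dose with Aref = 0.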

ABIRATERONE = compound: C[C@]12CC[C@H](O)CC1=CC[C@@H]1[C@@H]2CC[C@]2(C)C(c3cccnc3)=CC[C@@H]12 [ABIRATERONE]
Procedure, shortened: as §1

FORETINIB = compound: COc1cc2c(Oc3ccc(NC(=O)C4(C(=O)Nc5ccc(F)cc5)CC4)cc3F)ccnc2cc1OCCCN1CCOCC1 [FORETINIB]
Procedure, shortened: as §1

SORAFENIB = compound: CNC(=O)c1cc(Oc2ccc(NC(=O)Nc3ccc(Cl)c(C(F)(F)F)c3)cc2)ccn1 [SORAFENIB]
Procedure, shortened: as §1

XAV-939 = compound: Oc1nc(-c2ccc(C(F)(F)F)cc2)nc2c1CSCC2 [XAV-939]
Procedure, shortened: as §1

DASATINIB = compound: Cc1nc(Nc2ncc(C(=O)Nc3c(C)cccc3Cl)s2)cc(N2CCN(CCO)CC2)n1 [DASATINIB]
Procedure, shortened: as §1

[2] = compound: C[C@@H](Oc1cc(-c2cnn(C3CCNCC3)c2)cnc1N)c1c(Cl)ccc(F)c1Cl
Procedure, shortened: as §1

SOTRASTAURIN/AEB071 = compound: CN1CCN(c2nc(C3=C(c4c[nH]c5ccccc45)C(=O)NC3=O)c3ccccc3n2)CC1 [SOTRASTAURIN/AEB071]
Procedure, shortened: as §1

OLAPARIB = compound: O=C(c1cc(Cc2n[nH]c(=O)c3ccccc23)ccc1F)N1CCN(C(=O)C2CC2)CC1 [OLAPARIB]
Procedure, shortened: as §1

[3] = compound: CCn1c(C(=O)N(C2CC2)C2CC2)cc2c3c(ncn3C)c(Nc3cc(C)n(C)n3)nc21
Procedure, shortened: as §1

[4] = compound: CNCc1ccc(-c2[nH]c3cc(F)cc4c3c2CCNC4=O)cc1
Procedure, shortened: as §1

CRIZOTINIB = compound: C[C@@H](Oc1cc(-c2cnn(C3CCNCC3)c2)cnc1N)c1c(Cl)ccc(F)c1Cl [CRIZOTINIB]
Procedure, shortened: as §1

TEMOZOLOMIDE = compound: Cn1nnc2c(C(N)=O)ncn2c1=O [TEMOZOLOMIDE]
Procedure, shortened: as §1

MLN-4924 = compound: NS(=O)(=O)OC[C@@H]1C[C@@H](n2ccc3c(N[C@H]4CCc5ccccc54)ncnc32)C[C@@H]1O [MLN-4924]
Procedure, shortened: as §1

Test System | area under dose-response curve [1] | area under dose-response curve (ABIRATERONE) | area under dose-response curve (FORETINIB) | area under dose-response curve (SORAFENIB) | area under dose-response curve (XAV-939) | area under dose-response curve (DASATINIB) | area under dose-response curve [2] | area under dose-response curve (SOTRASTAURIN/AEB071) | area under dose-response curve (OLAPARIB) | area under dose-response curve [3] | area under dose-response curve [4] | area under dose-response curve (CRIZOTINIB) | area under dose-response curve (TEMOZOLOMIDE) | area under dose-response curve (MLN-4924)
SG43 HEADNECK | 1.38 | 3.37 | 2.45 | 4.26 | 2.88 | 1.64 | 2.88 | 3.54 | 3.28 | 2.97 | 3.46 | 2.8 | 2.97 | 
SG27 HEADNECK | 3.28 | 3.22 | 3.23 | 3.79 |  | 2.16 | 3.15 | 3.57 | 3.27 | 3.25 |  | 3.57 | 3.68 | 2.95
OS25HAL BONE | 3.34 | 3.44 | 2.85 | 3.2 | 3.23 | 2.28 | 3.14 | 3.43 | 3.36 | 3.23 |  | 3.21 | 3.52 | 2.39
JURKAT HAEMATOPOIETIC AND LYMPHOID TISSUE | 3.18 | 3.49 | 3.02 | 3.55 | 3.29 | 2.79 | 2.75 | 3.54 |  | 3.54 | 3.28 | 2.68 |  | 1.92
MDAMB468 BREAST | 2.43 | 3.46 |  | 3.82 |  | 2.57 | 3.05 | 3.12 | 2.89 | 3.4 | 2.75 | 3.08 | 3.67 | 2.17
NOS1 BONE | 2.84 | 3.87 | 2.58 | 3.01 |  | 1.42 | 3.13 | 3.36 | 2.8 | 3.62 | 2.83 | 3.87 | 3.67 | 
HOSMNG BONE | 3.18 | 3.41 | 2.05 |  | 3.14 | 2.21 | 2.33 | 3.24 | 3.29 | 3.39 | 3.01 | 2.38 | 3 | 3.01
BT549 BREAST | 3.07 |  | 3.09 | 3.65 |  | 1.74 | 3.16 | 3.27 | 2.76 | 3.29 | 3 | 3.2 | 3.71 | 2.41
DU4475 BREAST |  | 3.18 | 2.98 |  |  | 2.37 | 2.23 |  |  | 2.83 | 2.68 | 2.9 | 3.12 | 1.46
CHLA90 AUTONOMIC GANGLIA | 2.74 | 3.47 | 3 | 3.78 | 3.24 | 2.41 | 2.61 | 3.28 |  | 3.14 | 3.28 | 3.12 | 3.2 | 
SUM149.B1*.S BREAST | 3.06 | 3.93 |  | 3.92 | 3.73 | 2.05 | 3.1 | 3.26 |  | 3.62 |  | 3.8 | 3.73 | 2.42
SUM159 BREAST | 3.52 | 3.35 |  | 3.15 |  | 2.84 | 3.42 | 3.57 | 3.45 |  | 3.53 | 3.63 | 3.44 | 3.12
CADOES1 SOFT TISSUE | 3 |  | 2.56 | 2.92 | 2.98 | 3.34 | 2.94 | 3.21 | 3.04 | 3.08 | 2.97 | 3.05 | 3.11 | 2.57
C33A CERVIX | 2.14 |  | 3.09 | 3.69 | 3.08 | 1.29 | 3.07 | 3.68 |  | 3.14 | 3.29 | 3.26 | 3.18 | 2.13
22RV1 PROSTATE |  | 3.62 | 3.05 | 3.42 | 3.34 |  | 3 | 3.61 | 3.41 | 3.4 | 3.57 | 3.17 | 3.54 | 2.3
LNCAP PROSTATE | 2.92 | 2.98 | 2.93 |  | 2.79 | 2.62 | 2.82 | 3.71 | 3.27 | 2.93 |  | 2.91 | 3.08 | 1.35
CASKI CERVIX | 1.19 |  | 2.87 |  | 3.25 | 1.2 | 2.58 | 3.1 | 2.98 | 3.21 | 3.04 | 2.83 | 3.19 | 2.18
HU09 BONE | 3.08 | 3.7 | 2.28 | 2.68 |  | 1.76 | 2.79 |  |  | 3.49 | 3.06 | 3.03 | 3.28 | 2.59
MDAMB157 BREAST | 3.08 | 3.17 | 2.94 |  | 3.08 | 1.89 | 2.84 | 3.23 | 3.21 | 2.94 | 3.13 | 3.17 | 3.27 | 2.69
HCC1395 BREAST | 3.19 | 3.7 |  | 3.88 | 2.87 | 2.59 | 3.01 | 3.61 | 3.21 | 3.71 | 2.92 | 4.21 | 3.46 | 3.56

From the supplement of paper PMC6045584
